System: LW8
Test: Antibiotic susceptibility testing (antibiotic disks), strain LW8
Type: cell-based, Methylosinus sp.
Settings: antibiotic disks on solid P0% media, methane:air, one week, disk content as in column head
Method: Antibiotic Resistance Tests: To identify genetic markers suitable for genetic manipulation of PHA producing cultures, an antibiotic-resistance screening using antibiotic disks was performed. All strains were plated onto solid P0% media by spreading, then up to 4 antibiotic disks were placed on top. The plates were incubated under methane:air for one week and then were evaluated.

Compound: [H]/N=C(/N)N[C@H]1[C@H](O)[C@@H](O)[C@H](O[C@@H]2O[C@@H](C)[C@](O)(C=O)[C@H]2O[C@@H]2O[C@@H](CO)[C@H](O)[C@@H](O)[C@@H]2NC)[C@@H](N/C(N)=N\[H])[C@@H]1O [Streptomycin]
- Antibiotic susceptibility testing (AST) results: Resistant

From US20250283124A1, “POLYHYDROXYALKANOATE-PRODUCING BACTERIA AND METHODS FOR MAKING AND USING THEM” (SAN DIEGO STATE UNIVERSITY (SDSU) FOUNDATION, DBA SAN DIEGO …, priority 2021, published 2025)
